Format in all cases: cell-based
In experiment [1] the target is T1, EphA2 (Homo sapiens, UniProt P29317). The experiment in a line: EphA2 activation in HEK 293-A2 cells (pEphA/B immunoblot). On the set-up: expressed in transfected cells. Here is the method: (§1) Cells were plated in 24-well dishes at a density of 100,000 cells/well and grown for 24 hours prior to stimulation with appropriate compounds and ephrins for the given amounts of time. Compounds were prepared in DMSO at 500 times the final concentrations and 0.2% DMSO was used as vehicle control. Following treatment, cells were lysed directly in SDS Gel Loading Buffer and immunoblotted as described previously. Immunoprecipitation and immunofluorescence staining was performed as described. For immunoprecipitation, 300,000 cells/well were plated in 6-well dishes and lysed in modified RIPA Buffer (20 mM Tris-HCl pH 7.4, 20 mM NaF, 150 mM NaCl, 10% glycerol, 0.1% SDS, 0.5% DCA, 2 mM EDTA, 1% Triton X-100) following treatment. Either 10 μg of ephrin-A1-Fc, or […] of EphA2 mouse monoclonal antibody (Clone D7, Millipore) were used, and mouse IgG was used as a negative control for EphA2 IP.
To determine whether the EphA2 agonist activity of doxazosin is cell-context specific, we evaluated the effects of doxazosin on additional cell types. We first utilized HEK 293 cells overexpressing EphA2 (HEK 293-A2) that we described previously. […] Next we tested PC-3 cells that express high levels of endogenous EphA2 receptor. […] We next evaluated the time-course of activation in both MDA-231-A2 and HEK 293-A2 cells upon treatment with a single 50 μM dose of doxazosin.

Experiment [2] deals with T2, EphA4 (Homo sapiens, UniProt P54764).
T2 construct: expressed in transfected cells; host or cells: HEK 293
The experiment in a line: EphA4 activation in HEK 293 cells overexpressing EphA4. Conditions: HEK 293 overexpressing EphA4, 60 minutes.
Description: (§2) Cells were plated in 24-well dishes at a density of 100,000 cells/well and grown for 24 hours prior to stimulation with appropriate compounds and ephrins for the given amounts of time. Compounds were prepared in DMSO at 500 times the final concentrations and 0.2% DMSO was used as vehicle control. Following treatment, cells were lysed directly in SDS Gel Loading Buffer and immunoblotted as described previously. […] For immunoprecipitation, 300,000 cells/well were plated in 6-well dishes and lysed in modified RIPA Buffer (20 mM Tris-HCl pH 7.4, 20 mM NaF, 150 mM NaCl, 10% glycerol, 0.1% SDS, 0.5% DCA, 2 mM EDTA, 1% Triton X-100) following treatment. Either 10 μg of ephrin-A1-Fc, or 4 mg of EphA2 mouse monoclonal antibody (Clone D7, Millipore) were used, and mouse IgG was used as a negative control for EphA2 IP. […] For this purpose, HEK 293 cell lines overexpressing EphA1, EphA2, EphA3, EphA4, and EphB3 kinases were utilized.

Experiment [3] has as its target T1, EphA2. The experiment is described as follows: EphA2 activation in A172-A2 glioma cells. On the set-up: expressed in transfected cells. Here is the method:
as §1
Activation of EphA2 receptor by ephrin-A1 ligand inhibits both ERK1/2 and Akt kinase activities in most normal cells and a subset of cancer cells. […] We first tested this by utilizing the A172 glioma cells engineered to overexpress EphA2 receptor (A172-A2).

For experiment [4], the target named is T3, EphA3 (Homo sapiens, UniProt P29320).
T3 construct: expressed in transfected cells; host or cells: HEK 293
T3 sequence (P29320 21-983): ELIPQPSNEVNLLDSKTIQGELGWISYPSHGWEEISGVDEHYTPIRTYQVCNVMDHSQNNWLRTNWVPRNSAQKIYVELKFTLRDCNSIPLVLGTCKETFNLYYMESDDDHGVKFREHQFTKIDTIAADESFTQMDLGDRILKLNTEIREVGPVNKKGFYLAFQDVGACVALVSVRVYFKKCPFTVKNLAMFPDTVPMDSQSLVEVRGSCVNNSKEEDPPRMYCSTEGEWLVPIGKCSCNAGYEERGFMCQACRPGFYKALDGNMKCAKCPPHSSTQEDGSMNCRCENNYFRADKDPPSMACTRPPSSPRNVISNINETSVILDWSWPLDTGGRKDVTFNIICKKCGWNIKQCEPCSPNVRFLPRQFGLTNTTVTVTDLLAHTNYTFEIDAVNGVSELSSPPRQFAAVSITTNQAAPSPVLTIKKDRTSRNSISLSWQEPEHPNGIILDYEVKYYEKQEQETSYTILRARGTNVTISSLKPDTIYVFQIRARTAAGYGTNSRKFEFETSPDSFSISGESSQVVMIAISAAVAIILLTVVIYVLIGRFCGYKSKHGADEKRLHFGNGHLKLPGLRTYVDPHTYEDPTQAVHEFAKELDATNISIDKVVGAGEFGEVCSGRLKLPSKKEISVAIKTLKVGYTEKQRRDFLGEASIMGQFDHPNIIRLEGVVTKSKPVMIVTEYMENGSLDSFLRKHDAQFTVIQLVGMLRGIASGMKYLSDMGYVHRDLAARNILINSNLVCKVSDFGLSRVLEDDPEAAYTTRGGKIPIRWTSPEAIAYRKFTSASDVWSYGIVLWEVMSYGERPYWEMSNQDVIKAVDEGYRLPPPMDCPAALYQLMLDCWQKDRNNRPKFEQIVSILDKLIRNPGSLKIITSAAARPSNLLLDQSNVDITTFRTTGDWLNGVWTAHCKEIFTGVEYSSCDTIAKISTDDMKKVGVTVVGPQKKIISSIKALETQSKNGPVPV
The experiment is described as follows: EphA3 activation in HEK 293 cells overexpressing EphA3. The conditions noted are these: HEK 293 overexpressing EphA3, compared to EphA2 and EphA4.
Description: as §2

T1 sequence (P29317 24-976): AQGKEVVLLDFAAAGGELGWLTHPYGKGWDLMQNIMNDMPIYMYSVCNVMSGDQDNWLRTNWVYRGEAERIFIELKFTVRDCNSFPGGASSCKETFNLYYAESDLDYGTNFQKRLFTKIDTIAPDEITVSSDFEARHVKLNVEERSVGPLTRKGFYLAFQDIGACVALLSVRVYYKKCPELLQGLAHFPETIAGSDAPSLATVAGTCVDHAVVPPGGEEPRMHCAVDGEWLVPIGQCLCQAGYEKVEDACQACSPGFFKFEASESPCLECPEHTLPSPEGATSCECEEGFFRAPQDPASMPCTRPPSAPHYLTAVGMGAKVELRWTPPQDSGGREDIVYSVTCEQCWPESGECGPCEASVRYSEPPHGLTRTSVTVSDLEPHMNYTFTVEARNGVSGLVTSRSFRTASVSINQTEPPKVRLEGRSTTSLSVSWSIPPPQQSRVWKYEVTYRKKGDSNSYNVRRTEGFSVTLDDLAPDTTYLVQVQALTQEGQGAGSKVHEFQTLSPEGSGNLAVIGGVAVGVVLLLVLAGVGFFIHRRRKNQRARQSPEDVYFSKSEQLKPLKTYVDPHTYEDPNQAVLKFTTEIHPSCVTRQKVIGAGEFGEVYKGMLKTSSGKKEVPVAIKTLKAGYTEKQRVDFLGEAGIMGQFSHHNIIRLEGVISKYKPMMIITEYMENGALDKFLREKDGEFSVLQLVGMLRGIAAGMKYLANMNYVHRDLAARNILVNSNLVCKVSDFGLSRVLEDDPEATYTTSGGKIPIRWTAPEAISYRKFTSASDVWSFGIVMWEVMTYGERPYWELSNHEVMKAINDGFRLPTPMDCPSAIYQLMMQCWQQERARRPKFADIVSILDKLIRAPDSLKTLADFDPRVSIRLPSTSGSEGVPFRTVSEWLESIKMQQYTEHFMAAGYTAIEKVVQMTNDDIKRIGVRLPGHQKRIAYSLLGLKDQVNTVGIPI
T2 sequence (P54764 20-986, species assumed): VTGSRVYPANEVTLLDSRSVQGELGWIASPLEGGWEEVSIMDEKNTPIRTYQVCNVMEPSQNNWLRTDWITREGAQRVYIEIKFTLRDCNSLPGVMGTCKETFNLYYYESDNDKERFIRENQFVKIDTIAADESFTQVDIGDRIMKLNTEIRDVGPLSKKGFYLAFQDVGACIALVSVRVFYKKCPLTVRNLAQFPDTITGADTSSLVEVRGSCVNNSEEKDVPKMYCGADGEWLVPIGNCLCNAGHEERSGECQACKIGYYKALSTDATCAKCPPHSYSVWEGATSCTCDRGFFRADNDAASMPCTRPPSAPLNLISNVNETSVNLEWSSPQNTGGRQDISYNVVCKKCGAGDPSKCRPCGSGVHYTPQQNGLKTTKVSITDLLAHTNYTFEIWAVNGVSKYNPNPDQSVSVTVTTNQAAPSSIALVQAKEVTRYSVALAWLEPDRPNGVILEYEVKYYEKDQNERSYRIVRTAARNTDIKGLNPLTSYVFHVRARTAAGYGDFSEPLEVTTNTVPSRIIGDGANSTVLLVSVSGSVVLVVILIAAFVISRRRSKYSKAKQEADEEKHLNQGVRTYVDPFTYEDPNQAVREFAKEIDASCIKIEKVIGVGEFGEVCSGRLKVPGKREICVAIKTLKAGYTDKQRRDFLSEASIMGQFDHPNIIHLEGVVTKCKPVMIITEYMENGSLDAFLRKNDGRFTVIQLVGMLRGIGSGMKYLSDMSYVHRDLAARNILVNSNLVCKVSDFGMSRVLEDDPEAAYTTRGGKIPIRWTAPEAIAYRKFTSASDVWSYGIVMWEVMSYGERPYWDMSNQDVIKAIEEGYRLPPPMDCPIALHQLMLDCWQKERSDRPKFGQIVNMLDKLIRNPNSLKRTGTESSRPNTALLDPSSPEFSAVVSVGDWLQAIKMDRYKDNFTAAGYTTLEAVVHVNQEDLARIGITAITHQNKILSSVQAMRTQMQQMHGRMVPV

As to `COc1cc2nc(N3CCN(C(=O)C4COc5ccccc5O4)CC3)nc(N)c2cc1OC` (stereo not shown) [Doxazosin, 2-[4-(2,3-Dihydro-1,4-benzodioxine-2-carbonyl)piperazin-1-yl]-6,7-dimethoxyquinazolin-4-amine], the “concentration at which EphA2 activation starts” value in experiment [1] (HEK 293-A2 cells, 30 minutes) was 25 µM; in experiment [3] (A172-A2 cells, 90 minutes) it was “around 25 μM”. The “time at which EphA2 activation becomes evident” value in experiment [1] (HEK 293-A2 cells, single 50 μM dose) is 10 min. Besides, the EphA2 kinase activation result in experiment [1] (HEK 293 overexpressing EphA2, 60 minutes) is “activated both EphA2 and EphA4 kinases following a similar dose-response relationship”. The EphA4 kinase activation result in experiment [2] is “activated both EphA2 and EphA4 kinases following a similar dose-response relationship”. Moreover, the EphA2 degradation entry in experiment [3] (A172 cells) is “degradation of EphA2 following doxazosin treatment”. Besides, the EphA3 activation result in experiment [4] was “activation of EphA3 was weak”.

For the origin of these results see US11944624B2, “Peptide and small molecule agonists of EphA and their uses” (CASE WESTERN RESERVE UNIVERSITY, priority 2017, dated 2024).
